# Read-outs that look alike come from different tables or passages of the source.
# Key:
# [1] = test system: HeLa cells expressing H2B-GFP; experiment: Induction of mitotic arrest (EC50), mitotic index by phospho-histone 3 staining; format: cell-based; settings: Homo sapiens, concentration for 50% induction of mitotic arrest, overnight, read-out: EC50 (mitosis) (HeLa)
# Protocol: Parallel plates were treated overnight with the compounds to visualize the mitotic cells by staining with anti-phospho-histone 3 and Alexafluor 546 nm secondary antibodies after fixation with 4% paraformaldehyde. Following imaging of the nuclear GFP and phospho-histone 3 signals using an IN Cell Analyser (GE Healthcare), determination of the mitotic index by analysis of the images with Developer™ software (GE Healthcare) permitted estimation of the concentration that leads to 50% induction of the mitotic arrest (EC50). It can be seen that inhibition of cell proliferation and mitosis correlate well for the compounds tested.
# [2] = test system: HeLa cells expressing H2B-GFP; experiment: Inhibition of cell proliferation (GI50) by nuclear counts, IN Cell Analyser; format: cell-based, human; settings: for GI50: Homo sapiens; for GI50 / Anti-proliferative activity (effect of substitution, in words): HeLa; for GI50 / GI50 (HeLa): concentration causing 50% inhibition of cell proliferation, nuclear counts every 24 hours; for Anti-proliferative activity (effect of substitution, in words): text comment on Table 3
# Protocol: Table 3 HeLa cells expressing H2B-GFP were plated in 96-well plates and exposed to concentrations ranging from 100 μM to […] of the indicated compounds C1-C78. The number of cells was then determined every 24 hours by imaging of the plates using an IN Cell Analyser (GE Healthcare), followed by measurement of the number of intact cell nuclei using Developer™ software (GE Healthcare). Drug concentrations that cause 50% inhibition of cell proliferation (GI50) were determined from the nuclear counts using GraphPad Prism software or ED50v10 freeware.
SMILES,EC50 ([1]; values in nM),GI50 [2],also measured
CCOc1ccccc1NC(=S)N/N=C/c1cc(N(O)O)ccc1OC [CB68],> 10000 nM,–,–
COc1ccccc1/C=N/NC(=S)Nc1cccc(C)c1 [C1],–,700 nM,EC50 ([1]; values given in μM): ~1000 nM
COc1ccccc1/C=N/NC(=S)Nc1cccc(F)c1 [C17],–,~1000 nM,–
COc1cccc(NC(=S)N/N=C/c2ccccc2OC)c1 [C26],–,1300 nM,EC50 ([1]; values given in μM): ~1000 nM
COc1ccccc1/C=N/NC(=S)Nc1cc(-c2ccccc2)ccc1OC [CB59],~10000 nM,–,–
CCc1ccccc1NC(=S)N/N=C/c1ccccc1OC [CB45],–,13 nM,"Anti-proliferative activity (effect of substitution, in words) [2]: greatly increase the anti-proliferative activity"
COc1ccccc1/C=N/NC(=S)NC1CCCCC1 [C12],–,≥ 20000 nM,–
COc1ccccc1/C=N/NC(=S)Nc1cccc(C#N)c1 [C11],–,2000 nM,–
COc1ccccc1/C=N/NC(=S)Nc1ccccc1Cl [C8],300 nM,100 nM,–
COc1ccnc(NC(=S)N/N=C/c2ccccc2OC)c1 [CB51],–,~10000 nM,–
COc1ccccc1/C=N/NC(=S)Nc1cccc2ccccc12 [CB49],–,100 to 300 nM,–
COc1ccccc1/C=N/NC(=O)Nc1cccc(C)c1 [C14],–,4000 nM,–
COc1ccccc1Nc1nnc(-c2ccccc2OC)[nH]1 [CB78],> 10000 nM,–,–
COc1ccccc1/C=N/NC(=S)Nc1cccnc1C [CB52],–,100 to 300 nM,–
COc1cccc(OC)c1/C=N/NC(=S)Nc1cccc(C)c1 [C21],–,–,GI50 (HeLa) [2]: no activity
COc1ccccc1/C=N/N(C)C(=S)Nc1cccc(C)c1 [C2],–,~15000 nM,–
CCOc1ccccc1NC(=S)N/N=C/c1ccccc1OC [CB34],10 nM,11 nM,"Anti-proliferative activity (effect of substitution, in words) [2]: greatly increase the anti-proliferative activity"
COc1ccccc1/C=N/NC(=S)Nc1ccc(-c2ccccc2)cc1OC(F)(F)F [CB64],> 10000 nM,–,–
COc1ccccc1/C=N/NC(=S)NC(c1ccccc1)c1ccccc1 [CB41],–,~5000 nM,–
COc1ccccc1/C=N/NC(=S)Nc1cccc(C)n1 [CB55],–,~1000 nM,–
COc1ccccc1/C=N/NC(=S)NCc1ccccc1 [C25],–,–,GI50 (HeLa) [2]: no activity
COc1ccc(OC)c(/C=N/NC(=S)Nc2cccc(C)c2)c1 [C19],–,≥ 15000 nM,–
COc1ccc(NC(=S)N/N=C/c2ccccc2OC)cc1 [C10],–,2000 nM,EC50 ([1]; values given in μM): > 1000 nM
COc1ccccc1/C=N/NC(=S)Nc1cccnc1Cl [CB39],–,~3000 nM,–
COc1ccccc1/C=N/NC(=S)Nc1ccc(Cl)cc1C(F)(F)F [CB62],~50 nM,–,–
COc1ccccc1/C=N/NC(=S)Nc1ccc(C(C)C)cc1 [CB43],–,~5000 nM,–

SMILES,EC50 ([1]; values in nM),GI50 [2],also measured
COc1ccccc1/C=N/NC(=S)Nc1ccc(F)c(C)c1 [CB29],–,1000 nM,–
COc1ccccc1/C=N/NC(=S)Nc1c(C)cccc1OC [CB38],–,~3000 nM,–
COc1ccccc1/C=N/N(C)C(=S)N(C)c1cccc(C)c1 [C4],–,≥ 20000 nM,–
C#Cc1ccccc1NC(=S)N/N=C/c1ccccc1OC [CB33],–,1000 nM,–
CCOCCOc1ccccc1NC(=S)N/N=C/c1ccccc1OC [CB63],~2000 nM,–,–
COc1ccccc1/C=N/NC(=S)Nc1cc(C(=O)O)ccc1OC [CB58],~10000 nM,–,–
COc1ccccc1/C=N/NC(=S)Nc1ccc(N)c(C(F)(F)F)c1 [CB65],100 nM,–,–
COC(=O)c1sccc1NC(=S)N/N=C/c1ccccc1OC [CB50],–,~3000 nM,–
COc1cccc(/C=N/NC(=S)Nc2cccc(C)c2)c1OC [C20],–,–,GI50 (HeLa) [2]: no activity
COc1cc(C)c(NC(=S)N/N=C/c2ccccc2OC)cn1 [CB47],–,~300 nM,–
CCN(CC)CCOc1ccccc1NC(=S)N/N=C/c1ccccc1OC [CB66],> 10000 nM,–,–
COc1ccccc1/C=N/NC(=S)Nc1ccc2c(c1)OCO2 [CB76],> 10000 nM,–,–
FC(F)(F)c1ccccc1NC(=S)N/N=C/c1cccc2c1OCO2 [CB40],–,500 nM,–
COc1ccccc1/C=N/NC(=S)Nc1cccnc1 [CB77],~2000 nM,–,–
COc1ccccc1/C=N/NC(=S)Nc1ccccc1CCO [CB57],~2000 nM,–,–
CCOc1ccccc1NC(=S)N/N=C/c1cc(O)ccc1OC [CB74],~1000 nM,–,–
Cc1cccc(NC(=S)N/N=C/c2ccccc2C)c1 [C22],–,–,GI50 (HeLa) [2]: no activity
COc1ccccc1/C=N/NC(=S)NCc1cccc(C)c1 [CB36],–,~5000 nM,–
CCOc1ccccc1NC(=S)N/N=C/c1cnccc1C [CB71],~500 nM,–,–
COc1ccccc1/C=N/NC(=S)Nc1ccccc1OCC(C)C [CB56],~1000 nM,–,–
COc1ccccc1/C=N/NC(=S)Nc1cc(Cl)cc(Cl)c1 [C16],–,2600 nM,–
COc1ccccc1/C=N/NC(=S)Nc1ccc(C)cc1 [C18],≥ 30 nM,700 nM,–
CCOc1ccccc1NC(=S)N/N=C/c1cnccc1OC [CB67],> 3000 nM,–,–
COc1ccccc1/C=N/NC(=S)Nc1ccc(Cl)cc1 [C13],–,1000 nM,–
COc1ccccc1/C=N/NC(=S)Nc1c(C)cccc1C [CB44],–,~5000 nM,–
COc1ccccc1/C=N/NC(=S)Nc1cc(C)cc(C)c1 [CB30],–,500 nM,–

SMILES,EC50 ([1]; values in nM),GI50 [2],also measured
CCOc1ccccc1NC(=S)N/N=C/c1cccnc1OC [CB73],~1000 nM,–,–
COc1ccccc1/C=N/NC(=S)Nc1ccc(C#N)cc1 [C5],–,~20000 nM,–
COc1ccccc1/C=N/NC(=S)Nc1ccc(C)cc1C [CB42],–,9.5 nM,"Anti-proliferative activity (effect of substitution, in words) [2]: greatly increase the anti-proliferative activity"
COc1ccccc1/C=N/NC(=S)Nc1cccc(Cl)c1OC [CB32],–,25 nM,–
COc1ccccc1/C=N/NC(=S)Nc1cnccc1C(F)(F)F [CB48],–,100 to 300 nM,–
COc1ccccc1/C=N/NC(=S)Nc1cnccc1C [CB53],–,~10000 nM,–
COc1ccccc1/C=N/NC(=S)Nc1ccccc1Br [CB35],100 nM,50 nM,–
COc1ccccc1/C=N/NC(=S)Nc1ccc(F)c(Cl)c1 [C28],–,~3000 nM,–
COc1ccccc1/C=N/NC(=S)Nc1ccccc1C [C6],150 nM,90 nM,–
COc1ccccc1/C(C)=N/NC(=S)Nc1cccc(C)c1 [C3],–,≥ 20000 nM,–
COc1ccccc1/C=N/NC(=S)Nc1ccc(C(F)(F)F)cc1 [C23],–,≥ 20000 nM,–
COc1ccccc1/C=N/NC(=S)Nc1ccccc1C(C)C [CB46],–,3 nM,"Anti-proliferative activity (effect of substitution, in words) [2]: greatly increase the anti-proliferative activity"
COc1ccccc1/C=N/NC(=S)Nc1ccc(F)cc1C(F)(F)F [CB61],~200 nM,–,–
COc1ccccc1/C=N/NC(=S)Nc1ccccc1OC [C15],~70 nM,25 nM,"Anti-proliferative activity (effect of substitution, in words) [2]: greatly increase the anti-proliferative activity"
Cc1cccc(NC(=S)N/N=C/c2ccccc2F)c1 [C27],–,≥ 20000 nM,–
COc1ccccc1/C=N/NC(=S)Nc1ccccc1 [C7],–,5000 nM,–
COc1ccccc1/C=N/NC(=S)Nc1cccc2c1CCNC2 [CB69],> 10000 nM,–,–
COc1ccccc1/C=N/NC(=S)Nc1cc(Cl)ccc1OC [CB31],50 nM,15 nM,–
CCOc1ccccc1NC(=S)N/N=C/c1ccncc1N [CB72],> 10000 nM,–,–
COc1ccccc1/C=N/NC(=S)Nc1ccccc1C#N [CB37],–,~3000 nM,–
CCOc1ccccc1NC(=S)N/N=C/c1cccnc1N [CB70],~1000 nM,–,–
COc1ccccc1/C=N/NC(=S)Nc1ccccc1OC(F)(F)F [CB60],~500 nM,–,–
COc1ccccc1/C=N/NC(=S)Nc1cccnc1OC [CB54],–,17 nM,–
COc1ccccc1/C=N/NC(=S)Nc1cccc(Cl)c1 [C24],–,500 nM,–
COc1ccccc1/C=N/NC(=S)Nc1ccc(Cl)cc1Cl [CB75],20 nM,–,"Anti-proliferative activity (effect of substitution, in words) [2]: greatly increase the anti-proliferative activity"

# — US20120238604A1, “CYTOTOXIC COMPOUNDS” (Molecular Discovery Systems, priority 2009, published 2012)
